From paper PMC3134853, “In Vitro and In Vivo Study of Poly(ethylene glycol) Conjugated Ibuprofen to Extend the Duration of Action” (Scientia Pharmaceutica, 2011)
Values after ≈ are worked out from the molar mass of the structure shown. Like-named read-outs stand apart in the source and are kept apart here.

Legend:
[1] = test system: carrageenan-induced paw edema in rats; assay: Carrageenan-induced paw edema (anti-inflammatory activity); format: in vivo; conditions: Wistar rats, oral, mean ± SEM
Protocol: All the animals were obtained from the animal house of the Department of Pharmacology, […] College of Pharmacy, Mandsaur and its animal facility is approved by […]. No. 918/ac/05/CPCSEA). The experimental protocols for the same have been approved by Institutional Animal Ethics Committee. The analgesic activity was carried out on Swiss albino mice by the Siegmund et al. method; anti-inflammatory activity of the compounds was carried out on Wistar rats by the Winter et al. method. The anti-inflammatory activity was evaluated using carrageenan-induced paw edema on rat method. To evaluate the anti-inflammatory activity of the conjugates 4 groups (n = 6) of Wistar rats (150-200 g) were examined. […] A stock solution of 0.2, 0.52 and 2.14 mg ml^-1 was prepared as a homogeneous suspension in aqueous solution of sodium CMC (0.5% w/v) and each animal received 2.0- 2.2 ml of the respective drugs orally. Thirty minutes after administration of drugs, each rat received a subplanter injection of 0.1 ml of 1% carrageenan solution in its left hind paw. The swelling volume of the paw was measured before (time 0) and at 0.5, 1, 2, 3, 4, 24 h after the carrageenan injection. The measurement of the hind paw volume was carried out using an Ugo Basile Plethysmometer before any treatment (Vo) and in any interval (Vt) after the administration of the drugs. The percentage increase in the paw volume was calculated from the normal paw volume. The percentage of swelling inhibition was calculated using: Inhibition (%) = (Vt - Vo)control - (Vt - Vo)treated/(Vt - Vo)×100 (Vt and Vo relates to the average volume in the hind paw of the rats (n = 6) before any treatment and after anti-inflammatory agent treatment, respectively.

[2] = cited from earlier work
[3] = oral administration; cited from earlier work
[4] = test system: acetic acid induced writhing in mice; assay: Writhing induced by acetic acid (analgesic activity); format: in vivo, Swiss albino mice; conditions: oral, 3 h prior to acetic acid, Ibuprofen 20 mg/kg or molecular equivalent dose of conjugate
Protocol: Analgesic activity was carried out by using acetic acid induced writhing method in Swiss albino mice (25–30 g) of either sex. A 1% v/v solution of acetic acid was used to induce writhing. Test compounds were administered orally 3 h prior to acetic acid injection. Number of writhing for 10 min in control and test compounds were counted and compared. […] Acetic acid was administered intraperitoneally 1 ml/100 g body weight of the animal. Analgesic activity was measured as percent decrease in writhing in comparison to control. The percent Inhibition was calculated using the following equation: % Inhibition = 100 − number of writhings in test/number of writhings in control×100
Analgesic activity was carried out by using acetic acid induced writhing method in Swiss albino mice (25–30 g) of either sex. A 1% v/v solution of acetic acid was used to induce writhing. Test compounds were administered orally 3 h prior to acetic acid injection.

[5] = Determination of drug solubility (distilled water and phosphate buffer pH 7.4); format: physicochemical; conditions: UV 222 nm
Protocol: This suspension was stirred at room temperature for 24 hours with a Rota spin test tube Roter. After that the containers (test tubes) were left overnight for saturation. Then these saturated solutions were centrifuged at 10000 rpm the help of macro centrifuge and the supernatant was filtered via Whatman filter paper. The concentration of Ibuprofen was determined spectrophotometrically at 222 nm.

- solubility at 24 h ([5]; distilled water, room temperature, read-out: Solubility in distilled water): 10.6 µg/mL (≈ 51.2 µM)
- solubility at 24 h ([5]; phosphate buffer pH 7.4, room temperature, read-out: Solubility in phosphate buffer (pH 7.4)): 25.2 µg/mL (≈ 122 µM)
SMILES: CC(C)Cc1ccc(C(C)C(=O)O)cc1 (centres unmarked) [Ibuprofen, 2-(4-iso-butylphenyl)-propanoic acid]
- Paw edema volume ([1]; 1 hr, the values are: paw edema volume): 0.33 ± 0.013 mL
- Paw edema volume ([1]; 2 hr, the values are: paw edema volume): 0.48 ± 0.017 mL
- Paw edema volume ([1]; 3 hr, the values are: paw edema volume): 0.38 ± 0.013 mL
- Paw edema volume ([1]; 4 hr, the values are: paw edema volume): 0.24 ± 0.009 mL
- Paw edema volume ([1]; 8 hr, the values are: paw edema volume): 0.15 ± 0.01 mL
- Paw edema volume ([1]; 24 hr): 0.03 ± 0.013^ns
- Solubility in water (in words) [2]: poorly soluble in water
- Time to reach maximal plasma concentration [3]: ≤ 2 h
- Percent inhibition (decrease) in writhing number versus control [4]: 59.61%
